According to PMC8961646, “Fibroblast Activation Protein Specific Optical Imaging in Non-Small Cell Lung Cancer” (Frontiers in Oncology, 2022):
Non-standard residues stand in square brackets, D forms with d. Residues, ends and D or L forms follow the SMILES beside them. *: point of attachment. 5FAM = O=C1OC2(c3ccc(O)cc3Oc3cc(O)ccc32)c2ccc(C(=O)*)cc21; MethylRed = CN(C)c1ccc(/N=N/c2ccccc2C(=O)*)cc1; AEEA = NCCOCCOCC(=O)O

How the values were obtained:
[1] = target: T1, rhFAP (Homo sapiens, UniProt Q12884); assay: Enzyme kinetics with varying concentrations of substrate FAP3 in presence of rhFAP; type: biochemical; conditions: increasing concentrations of substrate FAP3 with rhFAP; value (SE)
T1 construct: purchased R&D Systems
T1 sequence (Q12884 26-760 limits assumed): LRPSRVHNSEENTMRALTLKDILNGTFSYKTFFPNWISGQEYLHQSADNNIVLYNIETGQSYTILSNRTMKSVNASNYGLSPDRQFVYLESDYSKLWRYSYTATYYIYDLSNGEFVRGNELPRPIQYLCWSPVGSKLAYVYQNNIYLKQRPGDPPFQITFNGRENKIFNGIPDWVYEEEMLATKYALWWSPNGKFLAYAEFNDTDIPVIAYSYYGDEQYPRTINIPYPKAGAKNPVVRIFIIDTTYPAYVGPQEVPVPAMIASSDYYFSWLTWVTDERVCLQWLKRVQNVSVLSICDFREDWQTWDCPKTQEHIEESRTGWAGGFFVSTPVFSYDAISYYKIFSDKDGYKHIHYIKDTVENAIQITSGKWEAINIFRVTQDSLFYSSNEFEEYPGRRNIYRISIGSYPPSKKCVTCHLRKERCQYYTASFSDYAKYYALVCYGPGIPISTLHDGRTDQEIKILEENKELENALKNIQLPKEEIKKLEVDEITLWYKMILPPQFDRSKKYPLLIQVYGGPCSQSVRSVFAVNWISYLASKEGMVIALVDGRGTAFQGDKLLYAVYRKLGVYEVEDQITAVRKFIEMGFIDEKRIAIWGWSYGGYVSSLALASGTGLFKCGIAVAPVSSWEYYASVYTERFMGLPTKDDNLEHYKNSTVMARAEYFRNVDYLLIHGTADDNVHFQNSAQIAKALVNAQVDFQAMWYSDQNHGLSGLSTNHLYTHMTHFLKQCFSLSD
Experimental: A calibration curve was determined using the FAP3 concentration (C-terminal cleavage fragment) against RFU to calculate the enzyme kinetic data and is shown below.

[2] = target: MMP 9 (Homo sapiens, UniProt P14780); assay: Probe assessment against recombinant MMP panel; type: biochemical; conditions: recombinant enzyme, n=2 run in triplicate
[3] = target: T1, rhFAP; assay: Probe cleavage by recombinant human FAP (fluorescence plate assay, MALDI confirmation); type: biochemical
[4] = test system: NSCLC patient tissue samples; assay: Fluorescence intensity and lifetime imaging (FLIM) of ex vivo NSCLC tissue; parameters: species or system human; conditions: FAP3 5 µM, ex vivo NSCLC samples N=5, imaged at 10-minute intervals to 40 minutes, 488 nm excitation
Experimental: For imaging solutions, varying concentrations of rhFAP were prepared in blackened eppendorfs and FAP3 to a final concentration of 5µM added and imaged as below. For biological specimens, NSCLC patient tissue samples from surgical resection were used fresh or snap frozen and stored at -80°C until required. Small fragments (approx. 4mm^3) incubated at 37°C in a 96 well plate in phenyl-red free DMEM (Gibco) containing 10% FCS, 1% Penicillin-streptomycin and 1% L-Glutamine. For the tissue fragments to be used as inhibitor controls, we added Talabostat at a dilution of 1:1000. Samples were then imaged using a clinically approved fluorescence lifetime imaging system used in conjunction with an imaging fibre ([30]) providing a 400 x 400 µm field of view. The imaging system incorporates a pulsed supercontinuum laser source, in this case tuned for excitation at 488 nm, with an achromatic confocal laser scanning system and a time-resolved spectrometer. This spectrometer contains a 512 channel single photon avalanche diode (SPAD) sensor ([31]) allowing for the rapid collection of time resolved spectral fluorescence lifetime data. Fluorescence intensity and lifetime images were collected using an image resolution of 160 x 160 pixels over a 498 – 570 nm spectral range with an exposure time of 13 µs per pixel. This led to an imaging rate of ~3 frames per second.
For each condition, the tumour samples were imaged using a fibre placed at the surface of the tissue (baseline), and then again at 10-minute intervals following the additions of equimolar concentrations of probe +/- Inhibitor. For imaging solutions, the fibre was held within the solution and imaged every 5 minutes. Each condition and time-point data for both fluorescence intensity and lifetime were collected. Imaging sequences had non-relevant frames removed, and the entire field of view was analysed. Analysis was undertaken using a bespoke software suite utilising the rapid lifetime determination (RLD) method ([32]). […]

[5] = target: T2, MMP 2 (Homo sapiens, UniProt P08253); assay: Probe assessment against recombinant MMP panel; type: biochemical; conditions: recombinant enzyme, n=2 run in triplicate
T2 sequence (P08253 110-660): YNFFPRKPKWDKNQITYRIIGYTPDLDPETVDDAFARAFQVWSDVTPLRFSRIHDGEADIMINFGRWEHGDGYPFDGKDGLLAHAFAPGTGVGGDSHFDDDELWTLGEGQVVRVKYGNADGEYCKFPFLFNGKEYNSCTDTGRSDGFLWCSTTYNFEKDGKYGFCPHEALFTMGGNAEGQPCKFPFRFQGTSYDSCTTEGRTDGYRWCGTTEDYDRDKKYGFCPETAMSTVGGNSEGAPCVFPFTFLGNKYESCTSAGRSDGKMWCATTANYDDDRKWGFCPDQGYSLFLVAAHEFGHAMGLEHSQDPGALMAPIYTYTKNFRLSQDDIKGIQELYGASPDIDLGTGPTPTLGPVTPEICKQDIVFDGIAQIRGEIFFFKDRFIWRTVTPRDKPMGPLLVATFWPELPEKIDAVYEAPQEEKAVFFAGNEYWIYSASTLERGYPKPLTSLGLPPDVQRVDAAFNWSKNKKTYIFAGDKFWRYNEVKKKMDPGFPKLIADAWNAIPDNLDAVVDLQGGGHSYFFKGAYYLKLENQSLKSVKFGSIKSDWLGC

Chain of MMP 9 (P14780 94-707): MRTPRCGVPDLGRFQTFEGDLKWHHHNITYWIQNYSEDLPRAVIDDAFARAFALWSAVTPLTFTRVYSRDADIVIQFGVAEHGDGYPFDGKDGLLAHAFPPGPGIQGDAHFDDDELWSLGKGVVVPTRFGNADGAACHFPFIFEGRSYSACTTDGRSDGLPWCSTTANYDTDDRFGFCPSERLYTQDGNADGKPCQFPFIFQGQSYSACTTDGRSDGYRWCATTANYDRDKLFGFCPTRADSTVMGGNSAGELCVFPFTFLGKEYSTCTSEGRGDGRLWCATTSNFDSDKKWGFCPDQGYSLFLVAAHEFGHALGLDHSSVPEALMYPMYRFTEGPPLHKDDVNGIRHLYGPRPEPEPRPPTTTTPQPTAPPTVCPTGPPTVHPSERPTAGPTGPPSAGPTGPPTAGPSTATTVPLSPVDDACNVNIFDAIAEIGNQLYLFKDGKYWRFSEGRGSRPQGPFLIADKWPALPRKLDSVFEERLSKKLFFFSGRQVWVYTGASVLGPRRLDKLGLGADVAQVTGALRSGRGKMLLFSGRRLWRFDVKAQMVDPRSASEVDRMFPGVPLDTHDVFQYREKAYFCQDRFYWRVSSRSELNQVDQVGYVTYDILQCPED

What does the source list for `CC(C)[C@H](NC(=O)[C@@H](N)CCCCNC(=O)c1ccccc1/N=N/c1ccc(N(C)C)cc1)C(=O)N[C@H](CO)C(=O)N1CCC[C@H]1C(=O)N[C@@H](CC(N)=O)C(=O)N[C@@H](CCC(N)=O)C(=O)NCC(=O)N[C@@H](CCCCNC(=O)c1ccc2c(c1)C(=O)OC21c2ccc(O)cc2Oc2cc(O)ccc21)C(=O)NCCOCCOCC(=O)N[C@H](CCCCN)C(=O)NCCOCCOCC(=O)N[C@H](CCCCN)C(=O)NCCOCCOCC(=O)N[C@H](CCCCN)C(N)=O` [FAP3] (H-K(MethylRed)V[dS]PNQGK(5FAM)[AEEA][dK][AEEA][dK][AEEA][dK]-NH2)?
Vmax [1]: 109.5 RFU/min; Activity with MMP 9 [2]: no activity; Cleavage of FAP3 by rhFAP confirmed by MALDI ([3]; MALDI-TOF read-out, cleavage post proline): confirming the cleavage; FAP specificity (over PREP) ([3]; probe 5 µM, rhFAP compared with rhPREP, each 0.1 µg/ml): demonstrated FAP specificity; Change in fluorescence intensity in NSCLC tissue ([4]; 37°C): increase in fluorescence intensity; Change in fluorescence lifetime in NSCLC tissue ([4]; RLD method): change to a longer lifetime signature; Activity with MMP 2 [5]: no activity
